Test results from ChEMBL document CHEMBL3769352, “Design, synthesis, and testing of an isoquinoline-3-carboxylic-based novel anti-tumor lead” (Bioorg Med Chem Lett, 2015).

How the values were obtained:
[1] = tested on: HeLa; assay: Cytotoxicity against human HeLa cells after 48 hrs by MTT assay; type: functional, cell-based
[2] = tested on: MCF7; assay: Cytotoxicity against human MCF7 cells after 48 hrs by MTT assay; type: functional, cell-based; settings: MCF7, 48 h
[3] = tested on: HepG2; assay: Cytotoxicity against human HepG2 cells after 48 hrs by MTT assay; type: functional, cell-based; settings: HepG2, 48 h
[4] = tested on: A2780; assay: Cytotoxicity against human A2780 cells after 48 hrs by MTT assay; type: functional, cell-based; settings: A2780, 48 h
[5] = tested on: KB; assay: Cytotoxicity against human KB cells after 48 hrs by MTT assay; type: functional, cell-based
[6] = Cytotoxicity against human Bel7402 cells after 48 hrs by MTT assay; type: functional, cell-based; settings: Bel-7402, 48 h
[7] = tested on: CCRF S-180; assay: Antitumor activity against mouse S180 cells allografted in Swiss mouse assessed as tumour weight at 2 umol/kg, sc administered every day for 12 days measured on fourteenth day (reference value: 1.662 +/- 0.355 g); type: functional
[8] = tested on: Mus musculus; assay: Toxicity in Swiss mouse allografted with mouse S180 cells assessed as reduction in liver to body weight ratio at 2 umol/kg, sc administered every day for 12 days measured on fourteenth day; type: organism-based, CCRF S-180; settings: in vivo, 288 h
[9] = tested on: Mus musculus; assay: Toxicity in Swiss mouse allografted with mouse S180 cells assessed as reduction in spleen weight index at 2 umol/kg, sc administered every day for 12 days measured on fourteenth day; type: organism-based, CCRF S-180; settings: in vivo, 288 h
[10] = tested on: Mus musculus; assay: Toxicity in Swiss mouse allografted with mouse S180 cells assessed as body weight at 2 umol/kg, sc administered every day for 12 days measured every day during compound administration; type: organism-based, CCRF S-180; settings: in vivo, 288 h
[11] = tested on: CCRF S-180; assay: Antitumor activity against mouse S180 cells allografted in Swiss mouse assessed as tumour weight at 8 umol/kg, sc administered every day for 12 days measured on fourteenth day (reference value: 1.662 +/- 0.355 g); type: functional
[12] = tested on: Mus musculus; assay: Toxicity in Swiss mouse allografted with mouse S180 cells assessed as effect on brain to body weight ratio at 2 umol/kg, sc administered every day for 12 days measured on fourteenth day; type: organism-based, CCRF S-180; settings: in vivo, 288 h
[13] = tested on: Mus musculus; assay: Toxicity in Swiss mouse allografted with mouse S180 cells assessed as effect on heart to body weight ratio at 2 umol/kg, sc administered every day for 12 days measured on fourteenth day; type: organism-based, CCRF S-180; settings: in vivo, 288 h
[14] = tested on: Mus musculus; assay: Toxicity in Swiss mouse allografted with mouse S180 cells assessed as effect on liver to body weight ratio at 2 umol/kg, sc administered every day for 12 days measured on fourteenth day; type: organism-based, CCRF S-180; settings: in vivo, 288 h
[15] = tested on: Mus musculus; assay: Toxicity in Swiss mouse allografted with mouse S180 cells assessed as effect on spleen to body weight ratio at 2 umol/kg, sc administered every day for 12 days measured on fourteenth day; type: organism-based, CCRF S-180; settings: in vivo, 288 h
[16] = tested on: Mus musculus; assay: Toxicity in Swiss mouse allografted with mouse S180 cells assessed as effect on kidney to body weight ratio at 2 umol/kg, sc administered every day for 12 days measured on fourteenth day; type: organism-based, CCRF S-180; settings: in vivo, 288 h
[17] = tested on: Mus musculus; assay: Toxicity in Swiss mouse allografted with mouse S180 cells assessed as spleen weight index at 2 umol/kg, sc administered every day for 12 days measured on fourteenth day; type: organism-based, CCRF S-180; settings: in vivo, 288 h
[18] = tested on: Mus musculus; assay: Toxicity in Swiss mouse allografted with mouse S180 cells assessed as effect on brain to body weight ratio at 8 umol/kg, sc administered every day for 12 days measured on fourteenth day; type: organism-based, CCRF S-180; settings: in vivo, 288 h
[19] = tested on: Mus musculus; assay: Toxicity in Swiss mouse allografted with mouse S180 cells assessed as effect on heart to body weight ratio at 8 umol/kg, sc administered every day for 12 days measured on fourteenth day; type: organism-based, CCRF S-180; settings: in vivo, 288 h
[20] = tested on: Mus musculus; assay: Toxicity in Swiss mouse allografted with mouse S180 cells assessed as effect on liver to body weight ratio at 8 umol/kg, sc administered every day for 12 days measured on fourteenth day; type: organism-based, CCRF S-180; settings: in vivo, 288 h
[21] = tested on: Mus musculus; assay: Toxicity in Swiss mouse allografted with mouse S180 cells assessed as effect on spleen to body weight ratio at 8 umol/kg, sc administered every day for 12 days measured on fourteenth day; type: organism-based, CCRF S-180; settings: in vivo, 288 h
[22] = tested on: Mus musculus; assay: Toxicity in Swiss mouse allografted with mouse S180 cells assessed as effect on kidney to body weight ratio at 8 umol/kg, sc administered every day for 12 days measured on fourteenth day; type: organism-based, CCRF S-180; settings: in vivo, 288 h
[23] = tested on: Mus musculus; assay: Toxicity in Swiss mouse allografted with mouse S180 cells assessed as spleen weight index at 8 umol/kg, sc administered every day for 12 days measured on fourteenth day; type: organism-based, CCRF S-180; settings: in vivo, 288 h
[24] = tested on: Mus musculus; assay: Toxicity in Swiss mouse allografted with mouse S180 cells assessed as effect on body weight at 8 umol/kg, sc administered every day for 12 days measured every day during compound administration; type: organism-based, CCRF S-180; settings: in vivo, 288 h

COc1cccc2c1C(=O)c1c(O)c3c(c(O)c1C2=O)C[C@@](O)(C(=O)CO)C[C@@H]3O[C@H]1C[C@H](N)[C@H](O)[C@H](C)O1 [DOXORUBICIN]
IC50 [1]: 0.6 µM | IC50 [2]: 0.16 µM | IC50 [3]: 0.58 µM | IC50 [4]: 0.27 µM | IC50 [5]: 0.13 µM | IC50 [6]: 1.36 µM | Activity [7]: 0.401 g | Activity [8]: Toxic | Activity [9]: Toxic | Activity [10]: 24 g

O=C(O)c1cc2ccccc2cn1
IC50 [1]: > 100 µM | IC50 [2]: > 100 µM | IC50 [3]: > 100 µM | IC50 [4]: > 100 µM | IC50 [5]: > 100 µM | IC50 [6]: > 100 µM | Activity [11]: 1.104 g | Activity [12]: Non-toxic | Activity [13]: Non-toxic | Activity [14]: Non-toxic | Activity [15]: Non-toxic | Activity [16]: Non-toxic | Activity [17]: Non-toxic | Activity [10]: 33 g

O=C(NCCN(CCNC(=O)c1cc2ccccc2cn1)CCNC(=O)c1cc2ccccc2cn1)c1ccccc1
IC50 [1]: 33.5 µM | IC50 [2]: 25 µM | IC50 [3]: 38.4 µM | IC50 [4]: 33.6 µM | IC50 [5]: 75.2 µM | IC50 [6]: 87.4 µM | Activity [7]: 0.952 g | Activity [18]: Non-toxic | Activity [19]: Non-toxic | Activity [20]: Non-toxic | Activity [21]: Non-toxic | Activity [22]: Non-toxic | Activity [23]: Non-toxic | Activity [24]: 33 g
